What was measured:
Assay type in all cases: cell-based
[1] = tested on: ovarian cancer cells cultivated in a 2D cell arrangement; assay: Clonogenic assay for radiosensitizing effect, 2D culture; settings: 0.7 μM 1 h before irradiation at 0, 2, 4 or 6 Gy
Protocol: The radiosensitizing effect was assessed with a clonogenic assay. […] The medium was removed right after irradiation and replaced by a drug-free medium, changed twice a week for the rest of the experiment. Clonogenic assay was stopped when colonies containing at least 50 cells were observed under the microscope. Error bar represent mean±SEM from 3 independent experiments with at least 2 replicates each.

Monolayer SKOV3 cells = assay: γ-H2AX / 53BP1 foci immunofluorescence after irradiation; settings: 0.7 μM 1 h before irradiation at 0 or 2 Gy, 6 h, 24 h after irradiation
Protocol: Cells were seeded on coverslip at a density of 5×10^4 per mL and exposed to DMSO or WD at a concentration of 0.7 μM 1 h before being irradiated at 0 or 2 Gy. The medium was removed and replaced by a drug-free medium immediately after irradiation. FIG. 6A. Images of immunofluorescence elicited in SKOV3 cells 1 h, 6 h and 24 h after irradiation taken using an Epifluorescence microscope at a magnification of 63×. […] Scale bar=10 μm. […] Values are normalized with non-irradiated cells, exposed to DMSO or WD respectively. […] Values are normalized with non-irradiated cells, exposed to DMSO or WD respectively. All the data are presented as the mean±SEM of at least 60 nuclei. *Significant differences as determined by Student's t-test (p<0.05).

NHEJ DNA repair pathway = assay: Western blot of DNA repair proteins after irradiation; settings: SKOV3 2D, 0.7 μM 1 h before irradiation at 0 or 2 Gy
Protocol: Western blot showing expression level of ATM, S1981pATM, DNA-PKcs, S2056pDNA-PKcs, XRCC4, RPA70 and RAD51 in SKOV3 cells cultivated in 2D. Cells were exposed to DMSO or WD at a concentration of 0.7 μM 1 h before undergoing an irradiation at 0 or 2 Gy. Proteins within cells were extracted 1 h, 6 h or 24 h after irradiation. A total of 5 μg of proteins was loaded. Bands intensities were quantified using ImageJ, normalized with GAPDH. Numbers represent expression level compared to non-irradiated cells. NI=Non-irradiated samples.

SKOV3 spheroids = assay: MTT antiproliferative assay on SKOV3 spheroids; settings: for antiproliferative effect: SKOV3 spheroids; for IC50: SKOV3 spheroids (5 days formation), 48 h exposure
Protocol: Twenty thousand cells were seeded in an ultra-low affinity round bottom 96 well plates and 5 days were allowed for spheroids formation. […] Error bars represent mean±SEM from 3 independent experiments of at least 6 replicates each.

[2] = tested on: SKOV3 ovarian cancer cells; assay: MTT antiproliferative assay on SKOV3 cells in monolayer (2D); settings: for IC50: SKOV3 cells cultured in monolayer, 48 h exposure
[3] = tested on: spheroids of SKOV3 ovarian cancer cells; assay: Spheroid volume growth after drug and irradiation; settings: 0.7 μM 1 h before irradiation at 0 Gy or 4 Gy, followed 19 days
Protocol: FIG. 8 includes a schematic overview of experiment. Cells were plated in an ultra-low affinity 96 well plate with a round bottom and allowed to form spheroids for 5 days. […] The medium containing drug was replaced by a drug-free medium after 4 days, then freshly changed twice a week for the rest of the experiment. Diameter of each spheroid was measured two or three times a week for 19 days with Micrometrics SE Premium software. Spheroid volume growth over time. Volume were normalized to day 0. Error bars represent mean±SEM for at least 5 replicates.

Row | Compound | radiosensitizing effect [1] | DNA DSBs (γ-H2AX and 53BP1 foci) versus DMSO (Monolayer SKOV3 cells) | mechanism of radiosensitization (expression of ATM, pATM, DNA-PKcs, pDNA-PKcs, XRCC4, RPA70, RAD51) (NHEJ DNA repair pathway) | antiproliferative effect (SKOV3 spheroids) | IC50 (SKOV3 spheroids) | cytotoxic effect ([2]; SKOV3 2D, 0.156 to 80 μM, 48 h) | IC50 [2] | radiosensitization of spheroids (normalized volume) [3]
1 | CC1=C(C)C(=O)O[C@@H]([C@](C)(O)[C@H]2CC[C@H]3[C@@H]4C[C@H]5O[C@]56[C@@H](O)C=CC(=O)[C@]6(C)[C@H]4CC[C@]23C)C1 [WD, withanolide D] | have a radiosensitizing effect | more DNA DSBs over 24 h than those exposed to DMSO | inhibiting the NHEJ DNA repair pathway | significant antiproliferative effect | 16 µM | dose-dependent cytotoxic effect | 4.2 µM | do not radiosensitize
2 | CC1=C(CO)C(=O)O[C@@H]([C@@H](C)[C@H]2CC[C@H]3[C@@H]4C[C@H]5O[C@]56[C@@H](O)C=CC(=O)[C@]6(C)[C@H]4CC[C@]23C)C1 [WFA, withaferin A] | have a radiosensitizing effect |  |  | significant antiproliferative effect | 23 µM |  | 4.4 µM | do not radiosensitize
